Consider 19 compounds from patent US20230135635A1, “INHIBITORS OF ULK1/2 AND METHODS OF USING SAME” (SALK INSTITUTE FOR BIOLOGICAL STUDIES, priority 2020, published 2023).

For assay [1], the target named is T1, NanoLuc®-ULK1 Fusion (Homo sapiens, UniProt O75385).
T1 construct: host or cells: HEK293T
T1 sequence (O75385 1-1050): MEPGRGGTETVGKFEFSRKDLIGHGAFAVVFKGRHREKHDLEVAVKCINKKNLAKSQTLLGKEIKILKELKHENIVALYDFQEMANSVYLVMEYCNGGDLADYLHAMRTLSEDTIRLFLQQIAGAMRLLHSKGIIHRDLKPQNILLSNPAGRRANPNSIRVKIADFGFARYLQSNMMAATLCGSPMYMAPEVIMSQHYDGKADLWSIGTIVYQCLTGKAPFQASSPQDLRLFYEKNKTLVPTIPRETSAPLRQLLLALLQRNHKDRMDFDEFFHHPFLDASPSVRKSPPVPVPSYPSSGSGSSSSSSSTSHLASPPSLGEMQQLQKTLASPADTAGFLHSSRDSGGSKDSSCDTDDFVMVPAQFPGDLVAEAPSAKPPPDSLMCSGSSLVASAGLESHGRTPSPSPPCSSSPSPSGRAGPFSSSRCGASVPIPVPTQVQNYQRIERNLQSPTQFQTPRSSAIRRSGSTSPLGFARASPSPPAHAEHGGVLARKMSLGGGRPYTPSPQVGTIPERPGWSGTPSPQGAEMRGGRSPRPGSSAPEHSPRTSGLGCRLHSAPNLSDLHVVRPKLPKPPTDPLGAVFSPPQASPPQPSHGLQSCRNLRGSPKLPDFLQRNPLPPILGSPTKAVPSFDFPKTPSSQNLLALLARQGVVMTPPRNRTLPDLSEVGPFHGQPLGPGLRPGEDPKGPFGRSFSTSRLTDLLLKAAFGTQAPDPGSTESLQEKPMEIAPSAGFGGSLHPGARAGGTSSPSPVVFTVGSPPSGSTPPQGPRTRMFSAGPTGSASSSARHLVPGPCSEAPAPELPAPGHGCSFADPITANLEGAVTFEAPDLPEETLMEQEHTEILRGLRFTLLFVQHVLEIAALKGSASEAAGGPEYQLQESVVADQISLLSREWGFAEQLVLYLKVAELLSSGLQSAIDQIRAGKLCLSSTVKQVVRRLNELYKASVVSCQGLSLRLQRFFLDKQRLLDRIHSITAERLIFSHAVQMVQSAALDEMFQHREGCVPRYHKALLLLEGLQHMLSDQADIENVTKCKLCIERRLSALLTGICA
Put plainly: ULK1 NanoBRET assay in HEK293T cells. Type of assay: cell-based. The procedure:
IC50s were also measured by ULK1 NanoBRET assay according to the following protocol: Human embryonic kidney cells (HEK293T) were transfected with NanoLuc®-ULK1 Fusion Vector (Promega #NV2211) using jetPRIME transfection reagent (Polyplus Transfection #114-15). Following 24 h, cells were trypsinized and resuspended in Opti-MEM® I (1×), Reduced Serum Medium (Gibco, #11058-021). Approximately, 7,000 cells per well (in 34 μL total volume) were replated into non-binding surface 384 well plates. Complete NanoBRET 20× Tracer K-5 reagent was prepared according to the manufacturer's directions and 2 μL were added to each well of the 384 plate (assay plate). The assay plate was mixed on an orbital shaker for 15 seconds at 700 rpm. Compounds were serially diluted at 200× final concentration in 100% DMSO, then diluted to 10× final concentration in assay media (Opti-MEM® I, Reduced Serum Medium). Next, 4 μL 10× test compounds were added to each well of the assay plate, followed by mixing at 700 rpm for 15 seconds. The assay plate was incubated for 2 h in a 37 C incubator with 5% CO2 and then equilibrated to RT for 15 min. The 3× Complete Substrate plus Inhibitor Solution was prepared according to the manufacturer's directions with a concentration of Extracellular NanoLuc® Inhibitor of 60 μM to be used at a working concentration of […]. The 3× Complete Substrate plus Inhibitor Solution was mixed and 20 μL per well was added to the assay plate and incubated at RT for 2-3 min. Donor emission wavelength (450 nm) and acceptor emission wavelength (610 nm) were measured using an assay compatible luminometer (see manufacturer's specifications).

In assay [2] the target is T2, recombinant human ULK1 protein (1-649) (Homo sapiens, UniProt O75385).
T2 construct: recombinant human ULK1 protein (1-649, SignalChem #U01-11G); purchased SignalChem U01-11G
T2 sequence (O75385 1-649): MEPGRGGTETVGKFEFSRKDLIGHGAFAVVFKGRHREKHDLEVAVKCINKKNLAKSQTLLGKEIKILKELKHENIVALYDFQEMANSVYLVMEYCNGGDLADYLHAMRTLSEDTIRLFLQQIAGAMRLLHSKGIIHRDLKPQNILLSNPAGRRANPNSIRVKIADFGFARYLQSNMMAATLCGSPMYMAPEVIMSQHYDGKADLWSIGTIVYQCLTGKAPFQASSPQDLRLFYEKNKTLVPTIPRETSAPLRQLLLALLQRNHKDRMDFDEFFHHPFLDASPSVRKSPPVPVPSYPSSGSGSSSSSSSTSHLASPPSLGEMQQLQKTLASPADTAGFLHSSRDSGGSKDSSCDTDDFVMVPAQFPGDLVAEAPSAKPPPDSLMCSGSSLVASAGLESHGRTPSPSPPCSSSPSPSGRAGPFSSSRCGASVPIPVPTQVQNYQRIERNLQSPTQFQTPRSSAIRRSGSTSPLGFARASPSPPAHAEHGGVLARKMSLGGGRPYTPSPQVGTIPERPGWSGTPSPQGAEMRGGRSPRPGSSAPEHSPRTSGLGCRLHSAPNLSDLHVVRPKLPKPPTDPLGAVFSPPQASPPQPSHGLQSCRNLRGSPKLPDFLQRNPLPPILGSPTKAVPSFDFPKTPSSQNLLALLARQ
Kind of assay: ULK1 inhibition assay (ADP Glo). It is filed as biochemical. In a few lines:
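Recombinant ULK1 (2 ug/mL) phosphorylated myelin basic protein (80 ug/mL) at 25 uM ATP; ADP formed was detected by ADP-Glo after 1 h. Compounds ran in triplicate, 16-dose 3-fold serial dilution from 30 uM, to give IC50.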

Setting [3] is: Table 1, 25 uM ATP, MBP substrate, one hour.

Turning to `CNC(=O)c1ccccc1Nc1nc(Nc2ccc3c(c2)CCN(CCOC)C3)ncc1C(F)(F)F` [Compound A119, 2-((2-((2-(2-Methoxyethyl)-1,2,3,4-tetrahydroisoquinolin-6-yl)amino)-5-(trifluoromethyl)pyrimidin-4-yl)amino)-N-methylbenzamide], the IC50 is below 100 nM in assay [1] (Table 1, 2 h incubation) and 1 to 10 nM in assay [2] (setting [3]). `COCCN1CCc2cc(Nc3ncc(C(F)(F)F)c(NC(C)C)n3)ccc2C1` [Compound A122, N^4-Isopropyl-N^2-(2-(2-methoxyethyl)-1,2,3,4-tetrahydroisoquinolin-6-yl)-5-(trifluoromethyl)pyrimidine-2,4-diamine]: the IC50 was below 100 nM in assay [1] (Table 1, 2 h incubation) and 1 to 10 nM in assay [2] (setting [3]). As to `O=C(CN1CCc2cc(Nc3ncc(C(F)(F)F)c(NC4CC4)n3)ccc2C1)N1CCOCC1` [Compound A47], the IC50 was below 100 nM in assay [1] (Table 1, 2 h incubation) and below 1 nM in assay [2] (setting [3]). In the case of `C#CCC(=O)N1CCc2cc(Nc3ncc(C(F)(F)F)c(NC4CC4)n3)ccc2C1` [Compound A84], the IC50 in assay [1] (Table 1, 2 h incubation) is above 100 nM; in assay [2] (setting [3]), 1 to 10 nM. On to `CNC(=O)c1ccccc1Nc1nc(Nc2ccc3c(c2)CCNC3)ncc1C(F)(F)F` [Compound A120, N-Methyl-2-((2-((1,2,3,4-tetrahydroisoquinolin-6-yl)amino)-5-(trifluoromethyl)pyrimidin-4-yl)amino)benzamide], for which the IC50 in assay [1] (Table 1, 2 h incubation) is below 100 nM; in assay [2] (setting [3]), 1 to 10 nM. Regarding `CNC(=O)c1ccccc1Nc1nc(Nc2ccc3c(c2)CCN(CCOC)C3)ncc1Cl` [Compound A117, 2-((5-Chloro-2-((2-(2-methoxyethyl)-1,2,3,4-tetrahydroisoquinolin-6-yl)amino)pyrimidin-4-yl)amino)-N-methylbenzamide], the IC50 in assay [1] (Table 1, 2 h incubation) is below 100 nM; in assay [2] (setting [3]), 1 to 10 nM.

Take `CNC(=O)c1ccccc1Nc1nc(Nc2ccc3c(c2)OCO3)ncc1C(F)(F)F` [Compound E6, 2-((2-(Benzo[d][1,3]dioxol-5-ylamino)-5-(trifluoromethyl)pyrimidin-4-yl)amino)-N-methyl benzamide]: the results for the IC50 in assay [1] (Table 3) and in assay [2] (Table 3) were above 100 nM and 5 to 100 nM, respectively.

`CC(=O)N1CCc2cc(Nc3ncc(C(F)(F)F)c(NC4CC4)n3)ccc2C1` [Compound A19]: the IC50 was below 100 nM in assay [1] (Table 1, 2 h incubation) and below 1 nM in assay [2] (setting [3]). In the case of `CNC(=O)c1ccccc1Nc1nc(Nc2cc(OC)c(OC)c(OC)c2)ncc1C1CC1` [Compound E10, 2-((5-Cyclopropyl-2-((3,4,5-trimethoxyphenyl)amino)pyrimidin-4-yl)amino)-N-methyl-benzamide], in assay [1] (Table 3), the IC50 was above 100 nM. For `FC(F)(F)c1cnc(Nc2ccc3c(c2)CCN(Cc2c[nH]cn2)C3)nc1NC1CC1` [Compound A51], the IC50 was below 100 nM in assay [1] (Table 1, 2 h incubation) and below 1 nM in assay [2] (setting [3]). For `CNC(=O)c1ccccc1Nc1nc(Nc2cc(OC)c(OC)c(OC)c2)ncc1C` [Compound E11, N-Methyl-2-((5-methyl-2-((3,4,5-trimethoxyphenyl)amino)pyrimidin-4-yl)amino)benzamide], the IC50 in assay [1] (Table 3) was above 100 nM.

On to `CNC(=O)c1ccccc1Nc1nc(Nc2ccc3c(c2)OCCO3)ncc1C(F)(F)F` [Compound E7, 2-((2-((2,3-Dihydrobenzo[b][1,4]dioxin-6-yl)amino)-5-(trifluoromethyl)pyrimidin-4-yl)amino)-N-methylbenzamide], for which the IC50 in assay [1] (Table 3) is above 100 nM; in assay [2] (Table 3), 5 to 100 nM.

Regarding `CNC(=O)c1ccccc1Nc1nc(Nc2cc(OC)c(OC)c(OC)c2)ncc1F` [Compound E12, 2-((5-Fluoro-2-((3,4,5-trimethoxyphenyl)amino)pyrimidin-4-yl)amino)-N-methylbenzamide], the IC50 in assay [1] (Table 3) was above 100 nM. Take `CNC(=O)c1ccccc1Nc1nc(Nc2cc(OC)c(OC)c(OC)c2)ncc1I` [Compound E13, 2-((5-iodo-2-((3,4,5-trimethoxyphenyl)amino)pyrimidin-4-yl)amino)-N-methylbenzamide]: the IC50 in assay [1] (Table 3) is below 100 nM. In the case of `CNC(=O)c1ccccc1Nc1nc(Nc2ccc3c(c2)CCN(CCOC)C3)ncc1Br` [Compound A118, 2-((5-Bromo-2-((2-(2-methoxyethyl)-1,2,3,4-tetrahydroisoquinolin-6-yl)amino)pyrimidin-4-yl)amino)-N-methylbenzamide], the IC50 was below 100 nM in assay [1] (Table 1, 2 h incubation) and 1 to 10 nM in assay [2] (setting [3]). For `CNC(=O)c1ccccc1Nc1nc(Nc2ccc3c(c2)OCO3)ncc1Br` [Compound E5, 2-((2-(Benzo[d][1,3]dioxol-5-ylamino)-5-bromopyrimidin-4-yl)amino)-N-methylbenzamide], the results for the IC50 in assay [1] (Table 3) and in assay [2] (Table 3) were above 100 nM and 5 to 100 nM, respectively. Take `CNC(=O)c1ccccc1Nc1nc(Nc2ccc3c(c2)OCCO3)ncc1Br` [Compound E4, 2-((5-Bromo-2-((2,3-dihydrobenzo[b][1,4]dioxin-6-yl)amino)pyrimidin-4-yl)amino)-N-methylbenzamide]: the figures for the IC50 in assay [1] (Table 3) and in assay [2] (Table 3) were above 100 nM and 5 to 100 nM, respectively. Turning to `FC(F)(F)c1cnc(Nc2ccc3c(c2)CNC3)nc1NC1CC1` [Compound A55], the IC50 in assay [1] (Table 1, 2 h incubation) is below 100 nM; in assay [2] (setting [3]) it was below 1 nM. `CNC(=O)c1ccccc1Nc1nc(Nc2cc(OC)c(OC)c(OC)c2)ncc1C#N` [Compound E9, 2-((5-cyano-2-((3,4,5-trimethoxyphenyl)amino)pyrimidin-4-yl)amino)-N-methylbenzamide] had an IC50 in assay [1] (Table 3) below 100 nM.
